{"source": "patent EP3248604A1", "about": "“AGENTS FOR MODULATION OF WNT-TCF SIGNALLING AND USES THEREOF” (UNIVERSITE DE GENEVE, priority 2016, dated 2017)", "key": {"WNT-TCF targets [1]": {"test_system": "WNT-TCF targets", "assay": "RT-qPCR gene expression in Ls174T cells", "type": "cell-based, human", "conditions": "Ls174T", "protocol": "(§1) RT-qPCR was performed as in Melotti et al. (2014, supra) using BioRad equipment and reagents. Cells cultured in nitro were treated with the desired concentration of drug in DMEM-F12 and reduced serum (2.5% FBS) for 16h, unless otherwise noted, and collected in Trizol (Sigma) before total RNA extraction and cDNA synthesis. Primers were as in Table 1. HPRT (gene encoding Hypoxanthine phosphoribosyltransferase 1) and βACTIN were used as housekeeping controls for normalization.\nCompounds have been tested for the transcriptional modulation of a restricted TCF signature in human colon cancer Ls174T cells. These included the direct targets AXIN2 (gene encoding a protein axis inhibition protein 2), LGR5 (gene encoding encodes leucine-rich repeat-containing G-protein coupled receptor 5) and cMYC (a regulator gene encoding a transcription factor), which should be repressed by WNT-TCF response antagonists and p21 (or CDKN1A, gene encoding a cyclin-dependent kinase inhibitor that inhibits the complexes of CDK2 and CDK1), which should be induced."}, "WNT-TCF targets [2]": {"test_system": "WNT-TCF targets", "assay": "RT-qPCR gene expression in CC36 primary colon cancer cells", "type": "cell-based, human", "conditions": "16h, batch 3, vs DMSO=1", "protocol": "as §1\n(§2) Primary colon cells CC14, CC36 and mCC11, colon cancer cell lines DLD1, HT29, Ls174T, melanoma cell line MeWo, glioblastoma cell lines U87 and U251, and the lung cancer cell line H358 were cultured in DMEM-F12 with 10% FBS under standard in nitro conditions."}, "WNT-TCF targets [3]": {"test_system": "WNT-TCF targets", "assay": "RT-qPCR gene expression in MeWo melanoma cells", "type": "cell-based, human", "conditions": "16h, batch 3, vs DMSO=1", "protocol": "as §1, §2"}, "DLD1 cells [4]": {"test_system": "DLD1 cells", "assay": "Clonal spheroid assay, DLD1", "type": "cell-based, human", "conditions": "Homo sapiens, DLD-1, 16 h, read-out: IC50, number of stem cell-derived spheroids", "protocol": "Cells were treated with different concentrations of compounds for 16h in 2D adherent culture, washed, harvested and plated in suspension with serum-free DMEM-F12 media with B27 supplement (1:50 dilution) at 1 cell/well in 96-well format in triplicates. Plated cells were monitored to ensure the presence of single cells in each well and spheroids counted and photographed after 10 days for each round.\nTo directly test for a long-lasting repression of WNT-TCF targets by CAP2 clonogenic properties of cancer stem cells were tested. DLD1 and LS174T cells were first treated with CAP2 in 2D culture in vitro followed by removal of the drug, washing with PBS, and plating under non-adherent 3D conditions for clonal spheroid growth in the absence of the drug. After primary spheroid growth, the spheroids were dissociated and replated as single cells for secondary and subsequent clonogenic spheroid formation, also in the absence of the compound of the invention. As negative control DMSO-treatment was used."}, "BMP/TGFβ": {"test_system": "BMP/TGFβ", "assay": "RT-qPCR gene expression in Ls174T cells, BMP/TGFβ genes", "type": "cell-based, human", "conditions": "vs DMSO=1", "protocol": "as §1\nNine components of the three pathways (WNT-TCF, BMP/TGFβ and chemokine/cytokine), and the top 6 repressed epigenetic regulators (ZMYND8, EED, SMARCAL1, TBLIXR1, SETD6 and TAF5L) (Figure 12) were tested for their modulation by dnTCF and their timed response to CAP2 treatment. […] DnTCF also repressed the expression of BMP4, SMAD6, IL8, CXCL3 and CXCL5, but expression of IL33 was enhanced. […] BMP4 and ID2 were also repressed at 2 and 4h but SMAD6 was repressed only at 4h. CXCL3 was already repressed at 2h, IL8 was little affected and IL33 and CXCL5 were enhanced at 2h. At 4 h only CXCL3 was repressed and the other three cytokine/chemokine genes tested (IL8, IL33 and CXCL5) were neither enhanced nor repressed. […] All values are normalized ratios with DMSO-controls, which were equated to 1 Table 14"}, "[5]": {"test_system": "chromatin components and remodelers", "assay": "Microarray analysis of chromatin components and remodelers in Ls174T cells", "type": "cell-based, human", "conditions": "CAP2-treated cells vs DMSO", "protocol": "Cells treated with compounds were collected in Trizol and RNA was harvested using standard protocols. Quality and quantity of RNA was checked using Nano Series (Agilent Technologies). Samples with a RNA Integrity Number (RIN) >9/10 were chosen and cDNA and cRNA samples were prepared using GeneChip IVT Express kit. Genechip hybridization was done using the same kit and applied to PrimeView U219 human array (Affymetrix) in the Genomic Platform at the Faculty of Medicine, University of Geneva.\nMining the transcriptome of CAP2-treated cells for CAP2-induced expression changes the public Reactome database for a chromatin organization cluster expanded to include related family members (94 probes) was used."}, "DLD1 cells [6]": {"test_system": "DLD1 cells", "conditions": "FACS, vs DMSO", "quoted_text": "Cell were plated with different concentrations of compounds in a 96-well format and incubated in standard conditions for 6h and imaged. Active (cleaved) Caspase-3^+ apoptosis was determined using the BD Pharmigen kit and FACS (fluorescence-activated cell sorting)."}, "[7]": {"conditions": "1.25µM, 16h, batch 3, vs DMSO=1"}, "[8]": {"conditions": "5µM batch 3, 2h post-treatment, vs DMSO=1"}, "[9]": {"conditions": "5µM batch 3, 4h post-treatment, vs DMSO=1"}, "[10]": {"conditions": "Table 11, head 'in vitro', concentration not given"}}, "note": "pIC50: −log10 of the molar value.", "data": [{"molecule": "CC1=C(C)C(=O)O[C@@H]([C@](C)(O)[C@]2(O)CC[C@@]3(O)[C@@H]4CC=C5CC=CC(=O)[C@]5(C)[C@H]4CC[C@]23C)C1", "note": "[CAP2]", "values": [{"measurement": "AXIN2 expression", "setting": "WNT-TCF targets [1]; [7]", "value": 0.6}, {"measurement": "LGR5 expression", "setting": "WNT-TCF targets [1]; [7]", "value": 0.2}, {"measurement": "AXIN2 expression", "setting": "WNT-TCF targets [1]; 2.5µM, 16h, batch 3, vs DMSO=1", "value": 0.4}, {"measurement": "LGR5 expression", "setting": "WNT-TCF targets [1]; 2.5µM, 16h, batch 3, vs DMSO=1", "value": 0.1}, {"measurement": "AXIN2 expression", "setting": "WNT-TCF targets [1]; [8]", "value": 0.2}, {"measurement": "LGR5 expression", "setting": "WNT-TCF targets [1]; [8]", "value": 0.7}, {"measurement": "AXIN2 expression", "setting": "WNT-TCF targets [1]; [9]", "value": 0.1}, {"measurement": "LGR5 expression", "setting": "WNT-TCF targets [1]; [9]", "value": 0.1}, {"measurement": "AXIN2 expression", "setting": "WNT-TCF targets [1]; 5µM, 16h, batch 3, vs DMSO=1", "value": 0.2}, {"measurement": "LGR5 expression", "setting": "WNT-TCF targets [1]; 5µM, 16h, batch 3, vs DMSO=1", "value": 0.03}, {"measurement": "AXIN2 expression", "setting": "WNT-TCF targets [1]; 10 µM, 16h", "value": 0.6}, {"measurement": "CDKN1A expression", "setting": "WNT-TCF targets [1]; 10 µM, 16h", "value": 3.7}, {"measurement": "LGR5 expression", "setting": "WNT-TCF targets [1]; 10 µM, 16h", "value": 0.7}, {"measurement": "cMYC expression", "setting": "WNT-TCF targets [1]; 10 µM, 16h", "value": 0.6}, {"measurement": "AXIN2 expression", "setting": "WNT-TCF targets [1]; 10µM, 16h, batch 3, vs DMSO=1", "value": 0.1}, {"measurement": "LGR5 expression", "setting": "WNT-TCF targets [1]; 10µM, 16h, batch 3, vs DMSO=1", "value": 0.1}, {"measurement": "AXIN2 expression level as compared to control", "setting": "WNT-TCF targets [1]; 2D culture, 2.5µm", "value": 0.4}, {"measurement": "ASCL2 expression", "setting": "WNT-TCF targets [1]; Table 7, 1.25µM, vs DMSO=1", "value": 1.1}, {"measurement": "AXIN2 expression", "setting": "WNT-TCF targets [1]; Table 7, 1.25µM, vs DMSO=1", "value": 0.7}, {"measurement": "CDKN1A expression", "setting": "WNT-TCF targets [1]; Table 7, 1.25µM, vs DMSO=1", "value": 3.5}, {"measurement": "LEF1 expression", "setting": "WNT-TCF targets [1]; Table 7, 1.25µM, vs DMSO=1", "value": 1.2}, {"measurement": "LGR5 expression", "setting": "WNT-TCF targets [1]; Table 7, 1.25µM, vs DMSO=1", "value": 0.3}, {"measurement": "cMYC expression", "setting": "WNT-TCF targets [1]; Table 7, 1.25µM, vs DMSO=1", "value": 0.04}, {"measurement": "ASCL2 expression", "setting": "WNT-TCF targets [1]; Table 7, 2.5µM, vs DMSO=1", "value": 0.4}, {"measurement": "AXIN2 expression", "setting": "WNT-TCF targets [1]; Table 7, 2.5µM, vs DMSO=1", "value": 0.4}, {"measurement": "CDKN1A expression", "setting": "WNT-TCF targets [1]; Table 7, 2.5µM, vs DMSO=1", "value": 5.4}, {"measurement": "LEF1 expression", "setting": "WNT-TCF targets [1]; Table 7, 2.5µM, vs DMSO=1", "value": 0.7}, {"measurement": "LGR5 expression", "setting": "WNT-TCF targets [1]; Table 7, 2.5µM, vs DMSO=1", "value": 0.2}, {"measurement": "cMYC expression", "setting": "WNT-TCF targets [1]; Table 7, 2.5µM, vs DMSO=1", "value": 0.1}, {"measurement": "ASCL2 expression", "setting": "WNT-TCF targets [1]; Table 7, 5µM, vs DMSO=1", "value": 0.1}, {"measurement": "AXIN2 expression", "setting": "WNT-TCF targets [1]; Table 7, 5µM, vs DMSO=1", "value": 0.3}, {"measurement": "CDKN1A expression", "setting": "WNT-TCF targets [1]; Table 7, 5µM, vs DMSO=1", "value": 11.4}, {"measurement": "LEF1 expression", "setting": "WNT-TCF targets [1]; Table 7, 5µM, vs DMSO=1", "value": 0.5}, {"measurement": "LGR5 expression", "setting": "WNT-TCF targets [1]; Table 7, 5µM, vs DMSO=1", "value": 0.1}, {"measurement": "cMYC expression", "setting": "WNT-TCF targets [1]; Table 7, 5µM, vs DMSO=1", "value": 0.1}, {"measurement": "ASCL2 expression", "setting": "WNT-TCF targets [1]; Table 7, 10µM, vs DMSO=1", "value": 0.1}, {"measurement": "AXIN2 expression", "setting": "WNT-TCF targets [1]; Table 7, 10µM, vs DMSO=1", "value": 0.1}, {"measurement": "CDKN1A expression", "setting": "WNT-TCF targets [1]; Table 7, 10µM, vs DMSO=1", "value": 7.6}, {"measurement": "LEF1 expression", "setting": "WNT-TCF targets [1]; Table 7, 10µM, vs DMSO=1", "value": 0.3}, {"measurement": "LGR5 expression", "setting": "WNT-TCF targets [1]; Table 7, 10µM, vs DMSO=1", "value": 0.1}, {"measurement": "cMYC expression", "setting": "WNT-TCF targets [1]; Table 7, 10µM, vs DMSO=1", "value": 0.01}, {"measurement": "ASCL2 expression", "setting": "WNT-TCF targets [1]; [10]", "value": 0.1}, {"measurement": "AXIN2 expression", "setting": "WNT-TCF targets [1]; [10]", "value": 0.3}, {"measurement": "LGR5 expression", "setting": "WNT-TCF targets [1]; [10]", "value": 0.1}, {"measurement": "AXIN2 expression", "setting": "WNT-TCF targets [2]; 1.25µM", "value": 1.2}, {"measurement": "AXIN2 expression", "setting": "WNT-TCF targets [2]; 2.5µM", "value": 0.6}, {"measurement": "AXIN2 expression", "setting": "WNT-TCF targets [2]; 5µM", "value": 0.4}, {"measurement": "AXIN2 expression", "setting": "WNT-TCF targets [2]; 10µM", "value": 0.4}, {"measurement": "AXIN2 expression", "setting": "WNT-TCF targets [3]; 1.25µM", "value": 0.4}, {"measurement": "LEF1 expression", "setting": "WNT-TCF targets [3]; 1.25µM", "value": 0.1}, {"measurement": "AXIN2 expression", "setting": "WNT-TCF targets [3]; 2.5µM", "value": 0.6}, {"measurement": "LEF1 expression", "setting": "WNT-TCF targets [3]; 2.5µM", "value": 0.2}, {"measurement": "AXIN2 expression", "setting": "WNT-TCF targets [3]; 5µM", "value": 0.3}, {"measurement": "LEF1 expression", "setting": "WNT-TCF targets [3]; 5µM", "value": 0.1}, {"measurement": "AXIN2 expression", "setting": "WNT-TCF targets [3]; 10µM", "value": 0.6}, {"measurement": "LEF1 expression", "setting": "WNT-TCF targets [3]; 10µM", "value": 0.1}, {"measurement": "pIC50", "setting": "DLD1 cells [4]", "value": "> 5.90"}, {"measurement": "BMP4 expression", "setting": "BMP/TGFβ; 5µM batch 3, 2h post-treatment", "value": 0.4}, {"measurement": "ID2 expression", "setting": "BMP/TGFβ; 5µM batch 3, 2h post-treatment", "value": 0.7}, {"measurement": "SMAD6 expression", "setting": "BMP/TGFβ; 5µM batch 3, 2h post-treatment", "value": 1.3}, {"measurement": "BMP4 expression", "setting": "BMP/TGFβ; 5µM batch 3, 4h post-treatment", "value": 0.1}, {"measurement": "ID2 expression", "setting": "BMP/TGFβ; 5µM batch 3, 4h post-treatment", "value": 0.1}, {"measurement": "SMAD6 expression", "setting": "BMP/TGFβ; 5µM batch 3, 4h post-treatment", "value": 0.4}, {"measurement": "EED repression", "setting": "[5]", "value": 8, "unit": "fold"}, {"measurement": "SMARCAL1 repression", "setting": "[5]", "value": 6, "unit": "fold"}, {"measurement": "ZMYND8 repression", "setting": "[5]", "value": 28, "unit": "fold"}, {"measurement": "concentration from which activated Caspase3 labeled cells increase", "setting": "DLD1 cells [6]", "value": 2.5, "unit": "µM"}]}]}
